BindingDB's records for PubMed 31931340 (n/a, 2020)

Molecular target: PIK3CA
Assay: Inhibition of human P13Kalpha

IC50: 15 nM
Structure (SMILES): CN(c1nc(-c2cnc(N)nc2)nc(N2CCOCC2)n1)C1CCN(C(=O)c2ccccc2)CC1
